Measured values as given in publication PMC6934184, “Selective DNA-PKcs inhibition extends the therapeutic index of localized radiotherapy and chemotherapy” (The Journal of Clinical Investigation, 2019).

Biological target: T1, CAMK4 (CaMKIV) (Homo sapiens, UniProt Q16566)
T1 construct: purchased Thermo Fisher Scientific (Life Technologies) SelectScreen
Experiment: SelectScreen Z'LYTE
Format: biochemical
How it was run: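 SelectScreen broad panel; activity (Z'LYTE, Adapta) plus binding formats. ATP: Km app for CSF1R Z'LYTE; 10 for CAMK1 Adapta. Readout = % per kinase.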

T1 sequence (Q16566 whole entry): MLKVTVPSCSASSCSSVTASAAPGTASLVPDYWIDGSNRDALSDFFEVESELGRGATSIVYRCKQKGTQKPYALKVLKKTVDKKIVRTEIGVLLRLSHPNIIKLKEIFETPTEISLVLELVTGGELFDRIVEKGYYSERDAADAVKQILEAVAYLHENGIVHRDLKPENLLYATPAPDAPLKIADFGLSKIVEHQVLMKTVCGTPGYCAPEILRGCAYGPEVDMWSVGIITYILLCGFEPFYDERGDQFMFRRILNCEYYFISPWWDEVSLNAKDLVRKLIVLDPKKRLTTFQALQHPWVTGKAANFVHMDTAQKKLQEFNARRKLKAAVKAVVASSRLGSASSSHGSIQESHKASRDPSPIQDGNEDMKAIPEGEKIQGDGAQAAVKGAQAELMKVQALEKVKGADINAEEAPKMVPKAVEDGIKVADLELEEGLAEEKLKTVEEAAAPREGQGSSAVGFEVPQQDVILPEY

Work on CN(C(=O)CN1CCOCC1)c1ccc2sc3c(-c4cccc5c(=O)cc(N6CC7CCC(C6)O7)oc45)cccc3c2c1 [NU5455] yielded an inhibition at 1 µM of -10.4%.
